# Results taken from article PMC5520216, “Frutapin, a lectin from Artocarpus incisa (breadfruit): cloning, expression and molecular insights” (Bioscience Reports, 2017).
# Assays:
# [1] = target: T1, Frutapin (FTP), recombinant (Artocarpus altilis, UniProt A0A2D0TC52); experiment: inhibition of haemagglutination of red blood cells, double serial dilution; format: cell-based; conditions: 37 °C, 1 h, visual read-out, carbohydrate-binding site
# T1 construct: full-length FTP (450 bp clone from leaf cDNA, codon-optimised ORF), pET SUMO in E. coli BL21, His-SUMO tag cut off with ULP1
# [2] = target: T1, Frutapin (FTP), recombinant; experiment: X-ray co-crystal structure, […] Å; conditions: co-crystallised with 100 mM glucose, glycerol removed; carbohydrate-binding site of all four monomers
# [3] = target: T1, Frutapin (FTP), recombinant; experiment: X-ray co-crystal structure, […] Å; conditions: co-crystallised with 20 mM mannose, glycerol removed; carbohydrate-binding site of all four monomers
# [4] = target: Frutapin (FTP), recombinant, mannose-binding lectin from Artocarpus incisa (breadfruit) (Artocarpus incisa (breadfruit)); experiment: native gel or EMSA; native gel electrophoresis of purified FTP after removal of the SUMO tag; size from a plot of Rf against log10 (MWt)
# T1 sequence (A0A2D0TC52 entry or part of it): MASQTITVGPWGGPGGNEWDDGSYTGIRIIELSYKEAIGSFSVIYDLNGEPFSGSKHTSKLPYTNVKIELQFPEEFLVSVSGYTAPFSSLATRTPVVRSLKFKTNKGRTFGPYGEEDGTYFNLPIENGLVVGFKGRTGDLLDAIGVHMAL
molecule,measurement,setting,value
OC[C@H]1OC(O)[C@H](O)[C@@H](O)[C@@H]1O (some centres unmarked) [glucose],inhibitory sugar concentration,[1]; 42.8 µg/ml FTP,100 mM
OC[C@H]1OC(O)[C@@H](O)[C@@H](O)[C@@H]1O (some centres unmarked) [mannose],inhibitory sugar concentration,[1]; 12.4 µg/ml FTP,6.25 mM
OC[C@H]1O[C@H](O)[C@H](O)[C@@H](O)[C@@H]1O [α-D-glucose],"X-ray co-crystal structure, 1.60 Å",[2],FTP was also co-crystallized with mannose and glucose
OC[C@H]1O[C@H](O)[C@@H](O)[C@@H](O)[C@@H]1O [α-D-mannose],"X-ray co-crystal structure, 1.70 Å",[3],FTP was also co-crystallized with mannose and glucose
"Frutapin (FTP), recombinant, mannose-binding lectin from Artocarpus incisa (breadfruit) (natural protein)",stoichiometry N,[4],4
